In assay [1] the test system is RKO. Put plainly: Binding affinity to F-actin in human RKO cells assessed as disruption of cytoskeleton organization by measuring transforming regular fibrous into punctuate structure at 1.6 uM incubated for 48 hrs by tetramethylrhodamine-phalloidin staining based confocal laser scanning microscopy. It is filed as cell-based.
Assay [2] relates to HeLa. Kind of assay: Cytotoxicity against human HeLa cells assessed as inhibition of cell growth incubated for 48 hrs by DAPI staining based high-content imaging analysis. It is filed as functional.
For assay [3], the system named is HeLa. Put plainly: Induction of cell cycle arrest in human HeLa cells assessed as accumulation of cells G2/M phase incubated for 48 hrs by DAPI staining based high-content imaging analysis. In kind it is functional.
In assay [4] the test system is RKO. Put plainly: Induction of cell cycle arrest in human RKO cells assessed as accumulation of cells at G2/M phase incubated for 48 hrs by DAPI staining based high-content imaging analysis. It is filed as functional.
Assay [5] relates to RKO. Put plainly: Cytotoxicity against human RKO cells assessed as inhibition of cell growth incubated for 48 hrs by DAPI staining based high-content imaging analysis. It is filed as functional.
The subject of assay [6] is HeLa. Put plainly: Binding affinity to F-actin in human HeLa cells assessed as disruption of cytoskeleton organization by measuring transforming regular fibrous into punctuate structure at 2 uM incubated for 48 hrs by tetramethylrhodamine-phalloidin staining based confocal laser scanning microscopy. It is filed as cell-based.
Assay [7] deals with RKO. Kind of assay: Binding affinity to F-actin in human RKO cells assessed as disruption of cytoskeleton organization by measuring transforming regular fibrous into punctuate structure at 50 uM incubated for 48 hrs by tetramethylrhodamine-phalloidin staining based confocal laser scanning microscopy. In kind it is cell-based.
Assay [8] relates to HeLa. Put plainly: Binding affinity to F-actin in human HeLa cells assessed as disruption of cytoskeleton organization by measuring transforming regular fibrous into punctuate structure at 50 uM incubated for 48 hrs by tetramethylrhodamine-phalloidin staining based confocal laser scanning microscopy. In kind it is cell-based.
In assay [9] the test system is HeLa. Put plainly: Binding affinity to F-actin in human HeLa cells assessed as disruption of cytoskeleton organization by measuring transforming regular fibrous into punctuate structure at 0.9 uM incubated for 48 hrs by tetramethylrhodamine-phalloidin staining based confocal laser scanning microscopy. In kind it is cell-based.
The test system of assay [10] is RKO. Put plainly: Binding affinity to F-actin in human RKO cells assessed as disruption of cytoskeleton organization by measuring transforming regular fibrous into punctuate structure at 0.8 uM incubated for 48 hrs by tetramethylrhodamine-phalloidin staining based confocal laser scanning microscopy. It is filed as cell-based.
Assay [11] has as its system HeLa. Put plainly: Binding affinity to F-actin in human HeLa cells assessed as disruption of cytoskeleton organization by measuring transforming regular fibrous into punctuate structure at 12.3 uM incubated for 48 hrs by tetramethylrhodamine-phalloidin staining based confocal laser scanning microscopy. It is filed as cell-based.
The test system of assay [12] is RKO. Kind of assay: Binding affinity to F-actin in human RKO cells assessed as disruption of cytoskeleton organization by measuring transforming regular fibrous into punctuate structure at 11.1 uM incubated for 48 hrs by tetramethylrhodamine-phalloidin staining based confocal laser scanning microscopy. In kind it is cell-based.
For assay [13], the system named is RKO. Kind of assay: Binding affinity to F-actin in human RKO cells assessed as disruption of cytoskeleton organization by measuring transforming regular fibrous into punctuate structure at 33.5 uM incubated for 48 hrs by tetramethylrhodamine-phalloidin staining based confocal laser scanning microscopy. In kind it is cell-based.
The test system of assay [14] is HeLa. Kind of assay: Binding affinity to F-actin in human HeLa cells assessed as disruption of cytoskeleton organization by measuring transforming regular fibrous into punctuate structure at 27.8 uM incubated for 48 hrs by tetramethylrhodamine-phalloidin staining based confocal laser scanning microscopy. It is filed as cell-based.
Assay [15] concerns RKO. Kind of assay: Binding affinity to F-actin in human RKO cells assessed as disruption of cytoskeleton organization by measuring transforming regular fibrous into punctuate structure at 16.7 uM incubated for 48 hrs by tetramethylrhodamine-phalloidin staining based confocal laser scanning microscopy. In kind it is cell-based.

The structures appear in SMILES notation. Calls of active or inactive are those of the source. The rule behind the calls is not given here.

Take `CC1=C[C@@H]2/C=C/C[C@H](C)C[C@@](C)(O)/C=C/C(=O)[C@]23C(=O)N[C@@H](Cc2ccccc2)[C@@H]3[C@@H]1C`: the result in [1] and in assay [6] was Active. The IC50 – broadly, the concentration at which inhibition is half-maximal – in assay [2] stood at 2 µM; in assay [5], 1.6 µM. The Activity entry in assay [3] and in [4] was “Dose-dependent-effect” throughout.
As for `CC1=C[C@@H]2[C@@H]3[C@H](/C=C(/C)C[C@@H](C)C[C@H]3O)[C@@H](O)[C@]23C(=O)N[C@@H](Cc2ccccc2)[C@@H]3[C@@H]1C`, the outcome in assay [7] and in assay [8] was Active. The figures for the 50% inhibitory concentration (IC50) in [2] and in [5] were over 50 µM and 45.2 µM, respectively. Further, the Activity result in assay [3] and in assay [4] was “Dose-dependent-effect” in each case.
For the molecule `C=C1[C@@H](C)[C@H]2[C@H](Cc3ccccc3)NC(=O)[C@]23[C@H](OC(C)=O)/C=C/[C@](C)(O)C[C@@H](C)C/C=C/[C@H]3[C@@H]1O`, the IC50 in [2] was 0.9 µM; in assay [5], 0.8 µM. For the same molecule, the outcome in [9] and in [10] was Active. Further, the Activity entry in [3] and in assay [4] was “Dose-dependent-effect” in each case.
As to `CC(=O)O[C@@H]1/C=C/[C@](C)(O)C[C@@H](C)C/C=C/[C@H]2C=C(C)[C@@H](C)[C@H]3[C@H](Cc4ccccc4)NC(=O)[C@]321`, the outcome in assay [11] and in assay [12] was Active. Moreover, the IC50 in assay [2] stood at 12.3 µM; in assay [5] it was 11.1 µM. For the same molecule, the Activity result in assay [3] and in [4] was “Dose-dependent-effect” in each case.
With `CC1=C[C@@H]2[C@@H](C[C@H](C)C1)[C@@H](O)[C@H]1C=C(C)[C@@H](C)[C@H]3[C@H](Cc4ccccc4)NC(=O)[C@]31[C@@H]2O`, the result in [7] and in [8] was Active. Further, the IC50 in [2] was over 50 µM; in assay [5], 47.3 µM. Besides, the Activity result in assay [3] and in [4] was “Dose-dependent-effect” throughout.
Consider `CC1=C[C@@H]2/C=C/C[C@H](C)C[C@@](C)(O)/C=C/[C@@H](O)[C@]23C(=O)N[C@@H](Cc2ccccc2)[C@@H]3[C@@H]1C`, for which the result in assay [8] and in [13] was Active. Also, the IC50 in assay [2] was over 50 µM; in assay [5], 33.5 µM. In addition, the Activity result in [3] and in assay [4] was “Dose-dependent-effect” throughout.
As for `CC1=C[C@H]2[C@H]3OC(=O)[C@@]24C(=N[C@@H](Cc2ccccc2)[C@@H]4[C@@H]1C)C[C@H]1[C@H]3C[C@H](C)C[C@@]1(C)O`, the outcome in assay [14] and in [15] was Active. The IC50 in assay [2] worked out at 27.8 µM; in assay [5], 16.7 µM. Further, the Activity entry in assay [3] and in [4] was “Dose-dependent-effect” each time.

Source of the values: ChEMBL document CHEMBL6153107, “Derailment of the Biosynthesis via an Acid-Mediated Intramolecular Cyclo-rearrangement Leads to a Novel Cytochalasin Skeleton” (J Nat Prod, 2025).
